Data: patent US8546377B2 (AbbVie Inc., priority 2009, dated 2013)
Like-named read-outs stand apart in the source and are kept apart here.

Experiments:
[1] = target: T1, human serotonin 5-HT2c receptor (Homo sapiens, UniProt P28335); assay: Human 5-HT2C receptor radioligand binding assay (agonist site, [125I](±)DOI); settings: membranes of transfected CHO cells, 0.2 nM [125I](±)DOI, 15 minutes at 37° C.
T1 construct: expressed in transfected cells; host or cells: CHO cells (membrane homogenate)
T1 sequence (P28335 33-458): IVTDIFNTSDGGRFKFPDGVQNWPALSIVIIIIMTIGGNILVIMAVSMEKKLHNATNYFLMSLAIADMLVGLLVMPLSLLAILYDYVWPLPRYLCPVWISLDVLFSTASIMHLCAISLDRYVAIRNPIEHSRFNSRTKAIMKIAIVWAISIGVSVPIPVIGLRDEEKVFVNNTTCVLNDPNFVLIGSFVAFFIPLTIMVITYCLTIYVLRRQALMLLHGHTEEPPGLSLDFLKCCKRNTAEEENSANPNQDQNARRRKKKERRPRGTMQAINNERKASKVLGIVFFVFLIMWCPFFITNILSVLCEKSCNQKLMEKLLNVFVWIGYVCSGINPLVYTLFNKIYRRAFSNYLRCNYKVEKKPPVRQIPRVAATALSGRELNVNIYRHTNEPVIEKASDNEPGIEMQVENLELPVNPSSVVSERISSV
Experimental: To determine the effectiveness of compounds having a formula (I), these compounds can be evaluated in a radioligand binding assay for the agonist site of the human serotonin 5-HT2c receptor or in vitro models of cellular function.
(i) Human 5-HT2C Receptor Radioligand Binding Assay
Affinity of compounds for the agonist site of the 5-HT2c receptor in transfected CHO cells was determined in a radioligand binding assay essentially as described by Bryant, H. U., et al., Life Sciences (1996) 59(15), 1259-1268.

[2] = target: T2, 5HT2B receptors (Homo sapiens, UniProt P41595); assay: Human 5-HT2B functional assay in CHO-K1 cells (calcium flux, FLIPR); assay type: cell-based; settings: for Emax: CHO-K1, read-out: Emax (%), 5-HT2B Agonist Activity
T2 construct: expressed in transfected cells; host or cells: CHO-K1 cells
Procedure, shortened: (§1)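 Frozen CHO-K1 cells over-expressing receptor, serum-starved overnight, loaded with Ca4 dye plus 2.5 mM probenecid for 60 min at room temperature. FLIPR fluorescence (ex 480/em 530 nm, 25° C) recorded 3 min after compound addition; 6-point 1:10 series from 10 μM, 0.2% DMSO. Response normalized to serotonin, 4-parameter fit gives EC50; Emax as % of serotonin.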

[3] = target: T3, 5HT2C receptors (Homo sapiens, UniProt P28335); assay: Human 5-HT2C functional assay in 1321N1 cells (intracellular calcium, FLIPR); assay type: cell-based; design: expressed in transfected cells; host or cells: 1321N1 cells; settings: for EC50: 1321N1 cells stably transfected, maximum calcium response, read-out: EC50 (μM), 5-HT2c Agonist Activity; for Emax: 1321N1 cells, percentage relative to the effect of serotonin, read-out: Emax (%), 5-HT2c Agonist Activity
T3 sequence (P28335 33-458): T1 sequence (P28335 33-458)
Experimental: (ii) Human 5-HT2C Functional Assay in 1321N1 Cells
Functional activity was determined by testing the effect of the compounds on intracellular calcium levels in 1321N1 cells stably transfected with the human 5-HT2C receptor. Cells were seeded into 96-well plates at 50,000 cells/well and grown overnight in tissue culture medium (DMEM with Glutamax I (Invitrogen), containing 10% dFCS, 50 μg/mL Gentamicin, 400 μg/mL Geneticin) at 37° C. and 7% CO2. Growth medium was replaced by medium without dFCS for overnight incubation. Cells were loaded with a fluorescent calcium-sensitive dye in the presence of 1% probenicid according to the manufacturer's protocol (Fluo4 AM, Molecular Devices). Serial compound dilutions (final concentrations 10^−10 to 10^−5 M) were added to the cells either alone or in the presence of serotonin (10^−9 M) and the maximum calcium response was determined using a FLIPR instrument (Molecular Devices). Concentration-response curves were fitted using a four-parameter logistic equation (GraphPad Prism). The concentration at which the compound exerts half its maximal effect is named the ‘effective concentration 50’ or ‘EC50’ and is listed in Table 2.
Emax is the maximum functional response or efficacy expressed as a percentage relative to the effect of serotonin.

[4] = target: T3, 5HT2C receptors; assay: Human 5-HT2C functional assay in CHO-K1 cells (calcium flux, FLIPR); assay type: cell-based; design: expressed in transfected cells; host or cells: CHO-K1 cells; settings: for Emax: percentage relative to the effect of serotonin
Procedure, shortened: as §1

[5] = CHO-K1, read-out: Emax (%), 5-HT2c Agonist Activity, CHO-K1 cells

T2 sequence (P41595 whole entry): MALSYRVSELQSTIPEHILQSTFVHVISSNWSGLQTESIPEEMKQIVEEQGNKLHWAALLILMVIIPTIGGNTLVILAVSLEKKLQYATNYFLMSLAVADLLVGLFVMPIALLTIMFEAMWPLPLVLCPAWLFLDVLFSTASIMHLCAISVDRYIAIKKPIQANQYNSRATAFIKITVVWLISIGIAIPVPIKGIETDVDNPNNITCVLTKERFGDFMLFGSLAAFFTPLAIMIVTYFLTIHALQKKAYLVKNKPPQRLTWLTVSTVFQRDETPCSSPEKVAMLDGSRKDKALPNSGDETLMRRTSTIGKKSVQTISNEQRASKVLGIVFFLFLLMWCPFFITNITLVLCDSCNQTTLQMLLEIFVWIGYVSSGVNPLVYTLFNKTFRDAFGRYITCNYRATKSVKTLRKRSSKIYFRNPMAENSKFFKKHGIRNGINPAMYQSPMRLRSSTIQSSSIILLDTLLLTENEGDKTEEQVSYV

EC50 ([2]; CHO-K1 cells over-expressing 5HT2B, calcium flux, read-out: EC50 (μM), 5-HT2B Agonist Activity) [µM] | EC50 ([4]; CHO-K1 cells over-expressing 5HT2C, calcium flux, read-out: EC50 (μM), 5-HT2c Agonist Activity) [µM] | Emax ([4]; CHO-K1 cells, read-out: Emax (%), 5-HT2c Agonist Activity) [%] | SMILES | Ki [1] [µM] | EC50 [2] [µM] | Emax [2] [%] | EC50 [3] [µM] | Emax [3] [%] | EC50 [4] [µM] | Emax [4, 5] [%]
– | – | – | O=C1CC2CNCCN2c2cc(F)ccc2N1 (centres unmarked) [Example 35, 10-fluoro-1,2,3,4,4a,5-hexahydropyrazino[1,2-a][1,5]benzodiazepin-6(7H)-one] | 0.11 | 0.6 | 80 | 0.052 | 100 | 0.02 | > 120
– | – | – | O=C1CC2CNCCN2c2c(F)cccc2N1 (centres unmarked) [Example 33, 11-fluoro-1,2,3,4,4a,5-hexahydropyrazino[1,2-a][1,5]benzodiazepin-6(7H)-one] | 0.042 | > 10 | – | 0.0142 | 98 | 0.01 | > 120
– | – | – | Brc1ccc2c(c1)NCCC1CNCCN21 (centres unmarked) [Example 19, 9-bromo-1,2,3,4,4a,5,6,7-octahydropyrazino[1,2-a][1,5]benzodiazepine] | 0.14 | > 10 | – | 0.0283 | 85.5 | 0.02 | > 120
– | – | – | O=C1NCC2CNCCN2c2ccccc21 (centres unmarked) [Example 46, 2,3,4,4a,5,6-hexahydropyrazino[1,2-a][1,4]benzodiazepin-7(1H)-one] | 0.033 | 0.3 | 80 | 0.0059 | 93 | 0.008 | > 120
– | – | – | O=C1CC2CNCCN2c2cccc(F)c2N1 (centres unmarked) [Example 32, 8-fluoro-1,2,3,4,4a,5-hexahydropyrazino[1,2-a][1,5]benzodiazepin-6(7H)-one] | 0.042 | > 10 | – | 0.0258 | 102 | 0.008 | 100
> 10 | 0.03 | > 120 | CCOc1ccc2c(c1)N1CCNCC1CC(=O)N2 (centres unmarked) [Example 44, 10-ethoxy-1,2,3,4,4a,5-hexahydropyrazino[1,2-a][1,5]benzodiazepin-6(7H)-one] | 0.15 | – | – | 0.0445 | 90 | – | –
– | – | – | Cc1cccc2c1NC(=O)CC1CNCCN21 (centres unmarked) [Example 40, 8-methyl-1,2,3,4,4a,5-hexahydropyrazino[1,2-a][1,5]benzodiazepin-6(7H)-one] | 0.035 | > 10 | – | 0.0068 | 89.5 | 0.005 | 110
– | – | – | O=C1CC2CN(Cc3ccccc3)CCN2c2cc(Cl)ccc2N1 (centres unmarked) [Example 24, 3-benzyl-10-chloro-1,2,3,4,4a,5-hexahydropyrazino[1,2-a][1,5]benzodiazepin-6(7H)-one] | 0.36 | – | – | 0.942 | – | – | –
– | – | – | O=C1CC2CNCCN2c2cc(C(F)(F)F)ccc2N1 (centres unmarked) [Example 31, 10-(trifluoromethyl)-1,2,3,4,4a,5-hexahydropyrazino[1,2-a][1,5]benzodiazepin-6(7H)-one] | 0.087 | – | – | 0.0204 | 118 | – | –
– | – | – | Clc1cccc(CN2CCC3CNCCN3c3ccccc32)c1 (centres unmarked) [Example 22, 7-(3-chlorobenzyl)-1,2,3,4,4a,5,6,7-octahydropyrazino[1,2-a][1,5]benzodiazepine] | 0.085 | – | – | 0.0697 | 80.5 | – | –
– | – | – | Clc1ccc2c(c1)N1CCNCC1CCN2 (centres unmarked) [Example 18, 10-chloro-1,2,3,4,4a,5,6,7-octahydropyrazino[1,2-a][1,5]benzodiazepine] | 0.018 | – | – | 0.0037 | 108 | – | –
– | – | – | O=C1C[C@H]2CNCCN2c2cc(Cl)c(Cl)cc2N1 [Example 37, (4aS)-9,10-dichloro-1,2,3,4,4a,5-hexahydropyrazino[1,2-a][1,5]benzodiazepin-6(7H)-one] | 0.014 | 0.003 | 100 | 0.0032 | 99.5 | 0.0008 | 100
– | – | – | O=C1CC2CNCCN2c2cc(/C=C/c3cccc(Cl)c3)ccc2N1 (centres unmarked) [Example 25, 10-[(E)-2-(3-chlorophenyl)vinyl]-1,2,3,4,4a,5-hexahydropyrazino[1,2-a][1,5]benzodiazepin-6(7H)-one] | 0.0014 | – | – | 0.0145 | 101 | – | –
– | – | – | CN1CCN2c3ccccc3NC(=O)CC2C1 (centres unmarked) [Example 38, 3-methyl-1,2,3,4,4a,5-hexahydropyrazino[1,2-a][1,5]benzodiazepin-6(7H)-one] | 0.2 | > 10 | – | 0.0663 | 68 | 0.08 | 100
– | – | – | c1ccc2c(c1)NCCC1CNCCN21 (centres unmarked) [Example 17, 1,2,3,4,4a,5,6,7-octahydropyrazino[1,2-a][1,5]benzodiazepine] | 0.14 | – | – | 0.073 | 111 | – | –
– | – | – | COc1ccc2c(c1)N1CCNC[C@@H]1CC(=O)N2 [Example 43, (4aS)-10-methoxy-1,2,3,4,4a,5-hexahydropyrazino[1,2-a][1,5]benzodiazepin-6(7H)-one] | 0.066 | 0.06 | 80 | 0.0138 | 86 | 0.01 | > 120
– | – | – | O=C1CC2CNCCN2c2cc(-c3ccccc3)ccc2N1 (centres unmarked) [Example 5, 10-phenyl-1,2,3,4,4a,5-hexahydropyrazino[1,2-a][1,5]benzodiazepin-6(7H)-one] | 0.074 | – | – | 0.0849 | 86 | – | –
– | – | – | O=C1CC2CNCCN2c2cc(/C=C/c3ccc(F)cc3F)ccc2N1 (centres unmarked) [Example 28, 10-[(E)-2-(2,4-difluorophenyl)vinyl]-1,2,3,4,4a,5-hexahydropyrazino[1,2-a][1,5]benzodiazepin-6(7H)-one] | 0.036 | – | – | 0.131 | 92 | – | –
– | – | – | Cc1ccc2c(c1)N1CCNC[C@@H]1CC(=O)N2 [Example 36, (4aS)-10-methyl-1,2,3,4,4a,5-hexahydropyrazino[1,2-a][1,5]benzodiazepin-6(7H)-one] | 0.0091 | 0.008 | 100 | 0.0015 | 104 | 0.002 | > 120
– | – | – | O=C1CC2CNCCN2c2cc(Cl)c(Cl)cc2N1 (centres unmarked) [Example 15, 9,10-dichloro-1,2,3,4,4a,5-hexahydropyrazino[1,2-a][1,5]benzodiazepin-6(7H)-one] | 0.017 | – | – | 0.0081 | 104 | – | –
– | – | – | O=C1C[C@H]2CNCCN2c2cc(Cl)ccc2N1 [Example 41, (4aS)-10-chloro-1,2,3,4,4a,5-hexahydropyrazino[1,2-a][1,5]benzodiazepin-6(7H)-one] | 0.005 | 0.006 | 110 | 0.002 | 99.5 | 0.0008 | > 120
